Laboratory results published in patent US12084473B2, “β-D-2′-deoxy-2′-α-fluoro-2′-β-C-substituted-2-modified-N6-substituted purine nucleotides for HCV treatment” (Atea Pharmaceuticals, Inc., priority 2015, dated 2024).
Read-outs that look alike come from different tables or passages of the source.

How the values were obtained:
[1] = biological target: HCV genotype 1b luciferase reporter replicon; test: microbe, parasite or virus in culture; type: cell-based; conditions: for EC50: read-out: EC50 in a replicon assay; for EC95: Huh-7 luc/neo ET cells, 72 hours, luciferase, read-out: HCV Replicon EC50/EC95: EC95; for Fold increase in activity compared to parent nucleoside: Table 7
Procedure: (§1) The plates were cultured for 24 hours prior to the addition of compounds. Six serial one half log dilutions of the test articles (high test concentration of 100.0 μM or high test concentration of 1.0 μM) and human interferon-alpha2b (high test 10.0 U/ml) were prepared in cell culture medium and added to the cultured cells in triplicate wells for each dilution. Six wells in the test plates received medium alone as an untreated control. Following 72 hours of culture in the presence of compound, one of the plates was used for the determination of cytotoxicity by staining with XTT and the other for antiviral efficacy by determination of luciferase reporter activity. Cytotoxicity and efficacy data were collected and imported into a customized Excel workbook for determination of the TC50 and EC50 values. […] The y-axis is the percent of virus control and the x-axis is the concentration of drug in μM. […] The y-axis is the percent of virus control and the x-axis is the concentration of drug in M.

[2] = system: Huh-7 luc/neo ET cells; test: Cytotoxicity by XTT staining in replicon cells
Procedure: as §1

[3] = system: HCV Genotype 1a, NS5B Mutation L159F and S282T; test: microbe, parasite or virus in culture; type: cell-based; conditions: genotype 1a, NS5B L159F and S282T
Procedure: (§2) Various patient-derived HCV genotypes containing wild-type and resistance-associated variants were used to determine their relative replication sensitivity to test compounds. Replicon resistance test vectors (RTVs) containing the NS5B genomic regions were prepared using viral RNA isolated from plasma of HCV patients. Each NS5B region was amplified by reverse-transcription polymerase chain reaction and cloned into an HCV replicon RTV which was then transferred by electroporation into Huh-7 cells.

[4] = system: HCV Genotype 1a, NS5B Mutation L159F; test: microbe, parasite or virus in culture; type: cell-based; conditions: genotype 1a, NS5B L159F
Procedure: as §2

[5] = system: HCV Genotype 1a, NS5B Mutation none; test: microbe, parasite or virus in culture; type: cell-based; conditions: genotype 1a, no NS5B mutation
Procedure: as §2

[6] = system: HCV Genotype 1b, NS5B Mutation C316N; test: microbe, parasite or virus in culture; type: cell-based; conditions: genotype 1b, NS5B C316N
Procedure: as §2

[7] = system: HCV Genotype 1b, NS5B Mutation none; test: microbe, parasite or virus in culture; type: cell-based; conditions: genotype 1b, no NS5B mutation
Procedure: as §2

[8] = system: HCV Genotype 2a, NS5B Mutation none; test: microbe, parasite or virus in culture; type: cell-based; conditions: genotype 2a, no NS5B mutation
Procedure: as §2

[9] = system: HCV Genotype 2b, NS5B Mutation none; test: microbe, parasite or virus in culture; type: cell-based; conditions: genotype 2b, no NS5B mutation
Procedure: as §2

[10] = system: HCV Genotype 3a-1, NS5B Mutation none; test: microbe, parasite or virus in culture; type: cell-based; conditions: genotype 3a-1, no NS5B mutation
Procedure: as §2

[11] = system: HCV Genotype 3a-2, NS5B Mutation none; test: microbe, parasite or virus in culture; type: cell-based; conditions: genotype 3a-2, no NS5B mutation
Procedure: as §2

[12] = system: HCV Genotype 4a, NS5B Mutation none; test: microbe, parasite or virus in culture; type: cell-based; conditions: genotype 4a, no NS5B mutation
Procedure: as §2

[13] = system: HCV Genotype 4d, NS5B Mutation none; test: microbe, parasite or virus in culture; type: cell-based; conditions: genotype 4d, no NS5B mutation
Procedure: as §2

[14] = system: HCV S282T replicon; test: microbe, parasite or virus in culture; type: cell-based; conditions: NS5B Mutation S282T, transient assay, 96-hr
Procedure: (§3) A transient transfection assay was performed to determine the sensitivity of the […] of HCV to test compounds. Huh-7 cells were electroporated in the presence of RNA transcribed from wild type or S282T HCV replicon plasmids from the T7 promoter. The transfected cells were seeded in to 96-well plates at 7.5×10^3 cells per well in Dulbecco's Modified Eagle's medium. After 24 hr of incubation, medium was removed and replaced with fresh medium containing no or various concentrations of test compounds. Following an additional 96-hr incubation, the anti-HCV activity was measured by luciferase endpoint with Britelite™ Plus luminescence reporter gene kit (Perkin Elmer, Shelton, CT). Duplicate plates were treated and incubated in parallel for assessment of cellular toxicity by staining with the tetrazolium dye XTT.

[15] = system: HCV wild type replicon; test: microbe, parasite or virus in culture; type: cell-based; conditions: NS5B Mutation None, transient assay, 96-hr
Procedure: as §3

[16] = system: micro-patterned human hepatocyte co-cultures; test: Human Hepatocyte Co-Cultures (HepatoPac): cytotoxicity and hepatocyte health; type: cell-based
Procedure: Cytotoxicity and hepatocyte health were assessed in triplicate by measuring ALT leakage, urea production, albumin secretion and cellular ATP contents in micro-patterned human hepatocyte co-cultures (HepatoPac®, Hepregen Corporation) prepared by seeding cryopreserved human hepatocytes (single donor) and 3T3 J2 mouse fibroblasts in microtiter plates according to procedures established by Hepregen. Culture media was replaced with fresh media containing TA, test article, (0, 1, 10 or 30 μM) every 2 or 3 days through day 16. […] Cellular ATP levels were measured on days 9 and 21. ATP signals in stromal-only control cultures (murine 3T3 fibroblasts) were subtracted from those of human HepatoPac co-cultures to obtain hepatocyte-specific effects. See, Table 4, 5 and 6 below.

[17] = Cytotoxicity by XTT staining in replicon cells; conditions: human
Procedure: as §1

[18] = system: HCV genotype 1b luciferase reporter replicon; test: microbe, parasite or virus in culture; type: cell-based; conditions: Hepatitis C virus, HuH-7-Luc/Neo-ET, 72 h, read-out: HCV Replicon EC50/EC95: EC50

sofosbuvir [reference compound]
EC50 [1]: 0.053 µM
TC50 [2]: greater than one hundred
IC95 Value [3]: 16.9509 µM
IC50 ([3]; read-out: IC50 Value): 1.62 µM
IC95 Value [4]: 1.0675 µM
IC50 ([4]; read-out: IC50 Value): 0.115 µM
IC95 Value [5]: 0.5077 µM
IC50 ([5]; read-out: IC50 Value): 0.0627 µM
IC95 Value [6]: 0.4728 µM
IC50 ([6]; read-out: IC50 Value): 0.0739 µM
Fold Change in IC50 from Sofosbuvir [7]: 1.0
IC95 Value [7]: 0.6422 µM
IC50 ([7]; read-out: IC50 Value): 0.086 µM
IC95 Value [8]: 0.1951 µM
IC50 ([8]; read-out: IC50 Value): 0.0225 µM
IC95 Value [9]: 0.2953 µM
IC50 ([9]; read-out: IC50 Value): 0.0448 µM
IC95 Value [10]: 0.6898 µM
IC50 ([10]; read-out: IC50 Value): 0.126 µM
IC95 Value [11]: 0.8081 µM
IC50 ([11]; read-out: IC50 Value): 0.123 µM
IC95 Value [12]: 0.6814 µM
IC50 ([12]; read-out: IC50 Value): 0.0749 µM
IC95 Value [13]: 1.0197 µM
IC50 ([13]; read-out: IC50 Value): 0.0937 µM
IC95 Value [14]: >1 µM
IC50 ([14]; read-out: IC50 Value): 0.278 µM
IC95 Value [15]: 0.218 µM
IC50 ([15]; read-out: IC50 Value): 0.0364 µM
IC50 ([16]; Day 9, read-out: Effect on Cellular ATP Concentrations, 50% Inhibitory Concentration (IC50)): 8.6 µM
IC50 ([16]; Day 21, read-out: Effect on Cellular ATP Concentrations, 50% Inhibitory Concentration (IC50)): 2.3 µM
IC50 ([16]; Table 5, Day 2, read-out: Effect on Albumin Secretion, 50% Inhibitory Concentration (IC50)): > 30 µM
IC50 ([16]; Table 5, Day 5, read-out: Effect on Albumin Secretion, 50% Inhibitory Concentration (IC50)): 19.5 µM
IC50 ([16]; Table 5, Day 7, read-out: Effect on Albumin Secretion, 50% Inhibitory Concentration (IC50)): 10.9 µM
IC50 ([16]; Table 5, Day 9, read-out: Effect on Albumin Secretion, 50% Inhibitory Concentration (IC50)): 9.3 µM
IC50 ([16]; Table 6, Day 2, read-out: Effect on Albumin Secretion, 50% Inhibitory Concentration (IC50)): > 30 µM
IC50 ([16]; Table 6, Day 5, read-out: Effect on Albumin Secretion, 50% Inhibitory Concentration (IC50)): > 30 µM
IC50 ([16]; Table 6, Day 7, read-out: Effect on Albumin Secretion, 50% Inhibitory Concentration (IC50)): > 30 µM
IC50 ([16]; Table 6, Day 9, read-out: Effect on Albumin Secretion, 50% Inhibitory Concentration (IC50)): 12.1 µM
IC50 ([16]; Table 6, Day 12, read-out: Effect on Albumin Secretion, 50% Inhibitory Concentration (IC50)): 6.8 µM
IC50 ([16]; Table 6, Day 16, read-out: Effect on Albumin Secretion, 50% Inhibitory Concentration (IC50)): 2.7 µM
IC50 ([16]; Table 6, Day 21, read-out: Effect on Albumin Secretion, 50% Inhibitory Concentration (IC50)): 2.3 µM
cytotoxicity to human co-cultured hepatocytes (in words) ([16]; text b588): more cytotoxicity than AT-511

CC(C)OC(=O)[C@H](C)NP(=O)(OCC1O[C@@H](n2cnc3c(N(C)C)nc(N)nc32)[C@](C)(F)[C@@H]1O)Oc1ccccc1 (mixture of isomers) [Compound 7, isopropyl ((((R,S)-(2R,3R,4R,5R)-5-(2-amino-6-(dimethylamino)-9H-purin-9-yl)-4-fluoro-3-hydroxy-4-methyltetrahydrofuran-2-yl)methoxy)-phenoxy-phosphoryl)-L-alaninate]
EC95 ([1]; Hepatitis C virus): 0.071 µM
EC50 ([1]; Hepatitis C virus): 0.012 µM
Fold increase in activity compared to parent nucleoside [1]: >890
fold increase in activity (versus parent nucleoside) ([1]; listed as stabilized phosphate prodrug (phosphoramidate) of β-D-2′-deoxy-2′-α-fluoro-2′-β-): > 1,300
fold increase in activity (versus parent nucleoside) ([1]; listed as stabilized racemic phosphate prodrug (phosphoramidate) of β-D-2′-deoxy-2′-α-fluo): > 890
CC50 at 72 h [17]: > 100 µM
EC50 [18]: 0.0121 µM

C#C[C@@]1(F)[C@H](O)C(COP(=O)(N[C@@H](C)C(=O)OC(C)C)Oc2ccccc2)O[C@H]1n1cnc2c(N(C)C3CC3)nc(N)nc21 (stereo partly drawn) [Compound 47, isopropyl ((((R,S)-(2R,3R,4R,5R)-5-(2-amino-6-(N-methylcyclopropylamino)-9H-purin-9-yl)-4-fluoro-3-hydroxy-4-ethynyltetrahydrofuran-2-yl)methoxy)-phenoxy-phosphoryl)-L-alaninate]
EC95 ([1]; Hepatitis C virus): 1.72 µM
CC50 at 72 h [17]: 1.68 µM
EC50 [18]: 0.338 µM

CC(C)OC(=O)[C@H](C)NP(=O)(OCC1O[C@@H](n2cnc3c(N)nc(N)nc32)[C@](C)(F)[C@@H]1O)Oc1ccccc1 (stereo partly drawn)
EC95 ([1]; Hepatitis C virus): 9.04 µM
Fold increase in activity compared to parent nucleoside [1]: 3
CC50 at 72 h [17]: > 100 µM
EC50 [18]: 2.1 µM

C#C[C@@]1(F)[C@H](O)[C@@H](CO)O[C@H]1n1cnc2c(N(C)C)nc(N)nc21 [Compound 41]
EC95 ([1]; Hepatitis C virus): 25.1 µM
CC50 at 72 h [17]: 21.8 µM
EC50 [18]: 0.508 µM

CC(C)OC(=O)[C@H](C)N[P@@](=O)(OCC1O[C@@H](n2cnc3c(N(C)C)nc(N)nc32)[C@](C)(F)[C@@H]1O)Oc1ccccc1 (stereo partly drawn) [Compound 26, isopropyl ((((R)-(2R,3R,4R,5R)-5-(2-amino-6-(dimethylamino)-9H-purin-9-yl)-4-fluoro-3-hydroxy-4-methyltetrahydrofuran-2-yl)methoxy)-phenoxy-phosphoryl)-L-alaninate]
EC95 ([1]; Hepatitis C virus): 0.057 µM
CC50 at 72 h [17]: > 100 µM
EC50 [18]: 0.0351 µM

CC(C)OC(=O)[C@H](C)N[P@@](=O)(OCC1O[C@@H](n2cnc3c(N(C)C4CC4)nc(N)nc32)[C@](C)(F)[C@@H]1O)Oc1ccccc1 (stereo partly drawn) [Compound 28, isopropyl ((((R)-(2R,3R,4R,5R)-5-(2-amino-6-(methylcyclopropanamino)-9H-purin-9-yl)-4-fluoro-3-hydroxy-4-methyltetrahydrofuran-2-yl)methoxy)-phenoxy-phosphoryl)-L-alaninate]
EC95 ([1]; Hepatitis C virus): 0.076 µM
CC50 at 72 h [17]: > 100 µM
EC50 [18]: 0.014 µM

CNc1nc(N)nc2c1ncn2[C@@H]1O[C@H](CO)[C@@H](O)[C@@]1(C)F [Compound 4, (2R,3R,4R,5R)-5-(2-amino-6-(methylamino)-9H-purin-9-yl)-4-fluoro-2-(hydroxymethyl)-4-methyltetrahydrofuran-3-ol]
EC50 ([1]; Hepatitis C virus, parent nucleosides): 15.7 µM
CC50 at 72 h [17]: > 100 µM
EC50 [18]: 15.7 µM

C#C[C@@]1(F)[C@H](O)[C@@H](CO)O[C@H]1n1cnc2c(N(C)C3CC3)nc(N)nc21 [Compound 43]
EC95 ([1]; Hepatitis C virus): 24.7 µM
CC50 at 72 h [17]: 21.6 µM
EC50 [18]: 6.43 µM
